Read-outs that look alike come from different tables or passages of the source. Where no end group is shown, it is not given here.
Legend:
S. aureus USA300 LAC = experiment: microbe, parasite or virus in culture; format: cell-based, Staphylococcus aureus; conditions: for MIC: read-out: Antimicrobial activity (MIC)
Description: (§1) The following resistant bacterial clinical strains were used in this study: S. aureus USA300 LAC, S. epidermidis 1457, E. coli E423-17, P. aeruginosa E411-17, K. pneumoniae E406-17, and A. baumannii B28-16. While the S. aureus USA300 strain is methicillin-resistant, most of the Gram-negative bacteria contain extended-spectrum beta-lactamase and are resistant to beta-lactam antibiotics. Peptide activity against bacteria was tested using an established lab protocol (Mishra, et al. (2017) Acta Biomater., 49:316-328). In brief, a peptide concentration gradient with twofold dilution was made in the 96-well polystyrene microplate at 10 μL per well. Bacteria were grown to the exponential phase (i.e., optical density at 600 nm≈0.5), diluted to ˜10^5 CFU/mL in different percentages of MHB, TSB, or LB, and partitioned into the 96-well microplate at 90 μL per well. […] They were diluted with autoclaved distilled water to obtain different percentages. The microplates were incubated at 37° C. overnight and read on a ChroMate™ 4300 microplate reader at 600 nm (GMI, Ramsey, MN). The peptide concentration in the wells without bacterial growth is the MIC. As is the convention, MIC values were represented as ranges.
(§2) For pH effects on peptide activity, the pH of the medium was adjusted to a targeted pH for the autoclave and then remeasured at room temperature. For salt and serum effects on peptide activity, stock NaCl solution or human serum was added to the media.
(§3) Peptide activity against bacteria were tested using the CLSI standard procedure with minor modifications (Clinical and Laboratory Standards Institute (2018) Performance standards for antimicrobial susceptibility testing, 9th ed.; Mishra, et al. (2019) Proc. Natl. Acad. Sci., 116(27):13517-13522). In brief, a peptide concentration gradient with twofold dilution was made in the 96-well polystyrene microplate at 10 μL per well. Bacteria were grown to the exponential phase (i.e., optical density at 600 nm≈0.5), diluted to ˜10^5 CFU/mL in MHB, and partitioned into the 96-well microplate at 90 μL per well. The microplates were incubated at 37° C. overnight and read on a ChroMate® 4300 Microplate Reader at 600 nm (GMI, Ramsey, MN). The peptide concentration in the wells without bacterial growth is the minimal inhibitory concentration (MIC). As the convention, MIC values were represented as ranges.
(§4) For pH effects on peptide activity, the pH of the medium was adjusted to a targeted pH for autoclave and then remeasured at room temperature. For salt and serum effects on peptide activity, stock NaCl solution or human serum were added to the media.

E. coli E423-17 = format: cell-based, Escherichia coli
Description: as §1, §2, §3, §4

P. aeruginosa E411-17 = experiment: microbe, parasite or virus in culture; format: cell-based, Pseudomonas aeruginosa; conditions: E411-17
Description: as §1, §2, §3, §4

A. baumannii B28-16 = format: cell-based, Acinetobacter baumannii; conditions: B28-16
Description: as §1, §3

K. pneumoniae E406-17 = format: cell-based, Klebsiella pneumoniae
Description: as §1, §3

E. coli = conditions: data from the antimicrobial peptide database; cited from earlier work

KRIVQRIKDFLR-NH2 (C-terminus assumed) [KR-12]
Antimicrobial activity (MIC) (S. aureus USA300 LAC; MHB 12.5%): active | Antimicrobial activity (MIC) (S. aureus USA300 LAC; MHB 100%): did not display any activity | Antimicrobial activity (MIC) (S. aureus USA300 LAC; USA300): 4 to 8 µM | MIC (S. aureus USA300 LAC; USA300): 4 µM | Antimicrobial activity (MIC) (E. coli E423-17; MHB 100%): active

KRIWQRIK-NH2 [W539]
Activity (MIC) P. aeruginosa (P. aeruginosa E411-17): >32 µM | Activity (MIC) S. aureus (S. aureus USA300 LAC; USA300): >32 µM | Activity (MIC) A. baumannii (A. baumannii B28-16): >32 µM | Activity (MIC) K. pneumoniae (K. pneumoniae E406-17): >32 µM | Activity (MIC) E.coli (E. coli E423-17; E423-17): >32 µM

KRWWQRWK-NH2 [W541]
Activity (MIC) P. aeruginosa (P. aeruginosa E411-17): >32 µM | Activity (MIC) S. aureus (S. aureus USA300 LAC; USA300): >32 µM | Activity (MIC) A. baumannii (A. baumannii B28-16): >32 µM | Activity (MIC) K. pneumoniae (K. pneumoniae E406-17): >32 µM | Activity (MIC) E.coli (E. coli E423-17; KR-8 series, Table 3): 8 µM

KRWWQWWK-NH2 [W542]
Activity (MIC) P. aeruginosa (P. aeruginosa E411-17): 4 to 8 µM | Activity (MIC) K. pneumoniae (K. pneumoniae E406-17): >32 µM

KWKFGKKLERIGQNVFRAAEKVLPVATGYAQLPATLAGAKQG (listed as Panorpa sp.) [Pvul-cec]
MIC against E. coli (E. coli): 8 µg/mL

LLGDFFRKSK-NH2 (C-terminus assumed) [LL-10]
MIC (S. aureus USA300 LAC; USA300): >64 µM

LRNLVPRTES-NH2 (C-terminus assumed) [LR-10]
MIC (S. aureus USA300 LAC; USA300): >64 µM | Antimicrobial activity (MIC) (E. coli E423-17; E423-17): >64 µM

NGNLLGGLLRPVLGVVKGLTGGLGKK (Pleurodema thaul) [Thaulin-1]
MIC against E. coli (E. coli): 62.5 µg/mL

RKSKEKIGK-NH2 (C-terminus assumed) [RK-9]
MIC (S. aureus USA300 LAC; USA300): >64 µM | Antimicrobial activity (MIC) (E. coli E423-17; E423-17): >64 µM

RWKFGKKLERMGKRIFKATEKGLPVATGVAALARG (Tunga penetrans) [Tpen-cec]
MIC against E. coli (E. coli): 8 µg/mL

RWKIFKKIEKVGQNIRDGIVKAGPAVAVVGQAATI (listed as Bombyx mori) [CM4]
MIC against E. coli (E. coli): 12 µM

RWKIFKRIEKVGRNVRDGVIKAGPAVAVLGQAKALGK (listed as Phyllodes eyndhovii) [Peyn-cec]
MIC against E. coli (E. coli): 8 µg/mL

SWLSKTAKKLENSAKKRIAEGIAIAIQGGPR (listed as Anisakis sp.) [Anisaxin-3]
MIC against E. coli (E. coli): 0.5 to 1.0 µM
